What was measured:
Type in all cases: cell-based
[1] = molecular target: T1, T2R08 (TAS2R08) (Homo sapiens, UniProt Q9NYW2); assay: FLIPR calcium assay, block of bitter agonist response in cells transfected with T2R08; settings: saturated fatty acid concentration of 200 μM, read-out: percentage block of cellular response over baseline, 08
T1 construct: expressed in transfected cells; host or cells: cells expressing a promiscuous G protein (e.g., G16g44)
T1 sequence (Q9NYW2 1-309): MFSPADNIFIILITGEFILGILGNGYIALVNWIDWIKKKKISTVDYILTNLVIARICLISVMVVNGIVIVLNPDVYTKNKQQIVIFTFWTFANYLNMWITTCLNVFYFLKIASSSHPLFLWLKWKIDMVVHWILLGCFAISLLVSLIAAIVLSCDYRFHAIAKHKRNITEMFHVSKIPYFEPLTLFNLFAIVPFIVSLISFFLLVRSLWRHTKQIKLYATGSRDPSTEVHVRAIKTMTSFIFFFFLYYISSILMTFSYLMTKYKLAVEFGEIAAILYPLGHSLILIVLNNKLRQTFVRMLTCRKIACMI
Method: (§1) Cells expressing a promiscuous […] (e.g., G16g44) were transfected with vectors encoding […] functional bitter receptor cDNAs, with one receptor per transfection. The cells were transfected directly in 384-well format high-density plates and incubated for 28 hours. Later, cells were loaded with the Ca-specific dye Fluo4-AM. After an incubation of 60 minutes, excess dye is washed off, and cells are stimulated with various saturated fatty acids while simultaneously recording changes in intracellular fluorescence using a FLIPR instrument. Bitter agonist and responding receptors were identified.
(§2) The above protocol was carried out using 13 different saturated fatty acids. A particular T2R receptor was identified as being antagonized by a particular saturated fatty acid if it triggered a >25% block of agonist's cellular response at 200 µM concentration of saturated fatty acid. […] Table 2 indicates the thirteen (13) compounds tested by their compound number from Table 1 above. The 6 bitter taste receptors are the human bitter taste receptors, that we named T2R01 (TAS2R01), T2R08 (TAS2R08), T2R10 (TAS2R10), T2R14 (TAS2R14), T2R54 (TAS2R39), and T2R75 (TAS2R46). The corresponding IUPHAR nomenclature for each receptor is given in parenthesis. In Table 2, these receptors are identified by the last two digits. For example, T2R01 is indicated as 01. Table 2 reports the percentage block of cellular response over baseline at a saturated fatty acid concentration of 200 μM.

[2] = molecular target: T2, T2R54 (TAS2R39) (Homo sapiens, UniProt P59534); assay: FLIPR calcium assay, block of bitter agonist response in cells transfected with T2R54; settings: saturated fatty acid concentration of 200 μM
T2 construct: expressed in transfected cells; host or cells: cells expressing a promiscuous G protein (e.g., G16g44)
T2 sequence (P59534 1-338): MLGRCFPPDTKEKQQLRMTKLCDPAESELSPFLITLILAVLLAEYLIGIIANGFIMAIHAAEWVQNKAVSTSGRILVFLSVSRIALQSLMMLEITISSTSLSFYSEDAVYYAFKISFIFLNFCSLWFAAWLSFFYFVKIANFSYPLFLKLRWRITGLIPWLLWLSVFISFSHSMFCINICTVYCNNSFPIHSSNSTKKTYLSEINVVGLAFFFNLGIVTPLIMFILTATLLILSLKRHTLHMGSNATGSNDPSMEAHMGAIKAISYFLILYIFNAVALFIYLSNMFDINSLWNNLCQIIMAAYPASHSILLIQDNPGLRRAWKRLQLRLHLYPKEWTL
Method: as §1, with “instrument.” for “instrument. Bitter agonist and responding receptors were identified.”
as §2, with “acids.” for “acids. A particular T2R receptor was identified as being antagonized by a particular saturated fatty acid if it triggered a >25% block of agonist's cellular response at 200 µM concentration of saturated fatty acid.”

[3] = molecular target: T3, T2R01 (TAS2R01) (Homo sapiens, UniProt Q9NYW7); assay: FLIPR calcium assay, block of bitter agonist response in cells transfected with T2R01; settings: saturated fatty acid concentration of 200 μM, read-out: percentage block of cellular response over baseline, 01
T3 construct: expressed in transfected cells; host or cells: cells expressing a promiscuous G protein (e.g., G16g44)
T3 sequence (Q9NYW7 1-299): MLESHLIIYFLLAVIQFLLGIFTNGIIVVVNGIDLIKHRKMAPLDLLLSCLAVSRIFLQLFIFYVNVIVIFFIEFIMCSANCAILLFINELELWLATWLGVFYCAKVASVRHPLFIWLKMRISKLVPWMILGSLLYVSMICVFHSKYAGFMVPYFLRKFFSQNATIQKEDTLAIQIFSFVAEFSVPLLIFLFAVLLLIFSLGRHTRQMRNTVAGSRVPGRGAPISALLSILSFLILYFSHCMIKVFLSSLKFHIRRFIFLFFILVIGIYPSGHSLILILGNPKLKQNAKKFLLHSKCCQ
Method: as §1, with “instrument.” for “instrument. Bitter agonist and responding receptors were identified.”
as §2, with “acids.” for “acids. A particular T2R receptor was identified as being antagonized by a particular saturated fatty acid if it triggered a >25% block of agonist's cellular response at 200 µM concentration of saturated fatty acid.”

[4] = molecular target: T4, T2R10 (TAS2R10) (Homo sapiens, UniProt Q9NYW0); assay: FLIPR calcium assay, block of bitter agonist response in cells transfected with T2R10; settings: saturated fatty acid concentration of 200 μM, read-out: percentage block of cellular response over baseline, 10
T4 construct: expressed in transfected cells; host or cells: cells expressing a promiscuous G protein (e.g., G16g44)
T4 sequence (Q9NYW0 1-307): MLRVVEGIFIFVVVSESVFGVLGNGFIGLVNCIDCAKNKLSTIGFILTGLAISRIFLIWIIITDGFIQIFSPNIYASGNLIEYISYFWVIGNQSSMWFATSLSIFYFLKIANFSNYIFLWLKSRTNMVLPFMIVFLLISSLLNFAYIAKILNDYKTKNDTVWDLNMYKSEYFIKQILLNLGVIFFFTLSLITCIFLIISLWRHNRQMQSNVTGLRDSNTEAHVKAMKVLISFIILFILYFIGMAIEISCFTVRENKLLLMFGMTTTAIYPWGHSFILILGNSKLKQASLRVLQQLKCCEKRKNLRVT
Method: as §1, with “instrument.” for “instrument. Bitter agonist and responding receptors were identified.”
as §2, with “acids.” for “acids. A particular T2R receptor was identified as being antagonized by a particular saturated fatty acid if it triggered a >25% block of agonist's cellular response at 200 µM concentration of saturated fatty acid.”

[5] = molecular target: T5, T2R14 (TAS2R14) (Homo sapiens, UniProt Q9NYV8); assay: FLIPR calcium assay, block of bitter agonist response in cells transfected with T2R14; settings: saturated fatty acid concentration of 200 μM
T5 construct: expressed in transfected cells; host or cells: cells expressing a promiscuous G protein (e.g., G16g44)
T5 sequence (Q9NYV8 1-317): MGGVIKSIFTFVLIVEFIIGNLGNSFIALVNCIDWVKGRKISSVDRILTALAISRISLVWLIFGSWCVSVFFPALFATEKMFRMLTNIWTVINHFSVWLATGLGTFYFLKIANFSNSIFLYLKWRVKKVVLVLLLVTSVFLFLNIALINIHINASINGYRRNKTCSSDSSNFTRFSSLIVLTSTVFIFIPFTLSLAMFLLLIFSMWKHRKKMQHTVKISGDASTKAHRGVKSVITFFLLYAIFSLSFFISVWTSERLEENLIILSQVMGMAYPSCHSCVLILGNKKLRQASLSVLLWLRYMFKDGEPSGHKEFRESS
Method: as §1, with “instrument.” for “instrument. Bitter agonist and responding receptors were identified.”
as §2, with “acids.” for “acids. A particular T2R receptor was identified as being antagonized by a particular saturated fatty acid if it triggered a >25% block of agonist's cellular response at 200 µM concentration of saturated fatty acid.”

[6] = molecular target: T6, T2R75 (TAS2R46) (Homo sapiens, UniProt P59540); assay: FLIPR calcium assay, block of bitter agonist response in cells transfected with T2R75; settings: saturated fatty acid concentration of 200 μM
T6 construct: expressed in transfected cells; host or cells: cells expressing a promiscuous G protein (e.g., G16g44)
T6 sequence (P59540 1-309): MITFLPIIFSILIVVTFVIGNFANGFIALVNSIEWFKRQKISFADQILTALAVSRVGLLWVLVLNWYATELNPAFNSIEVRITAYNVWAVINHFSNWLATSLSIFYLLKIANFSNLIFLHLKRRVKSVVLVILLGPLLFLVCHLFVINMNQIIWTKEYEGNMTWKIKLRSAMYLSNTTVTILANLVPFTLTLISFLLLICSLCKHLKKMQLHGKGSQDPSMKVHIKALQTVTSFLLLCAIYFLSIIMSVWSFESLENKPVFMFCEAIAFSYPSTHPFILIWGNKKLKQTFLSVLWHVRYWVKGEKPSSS
Method: as §1, with “instrument.” for “instrument. Bitter agonist and responding receptors were identified.”
as §2, with “acids.” for “acids. A particular T2R receptor was identified as being antagonized by a particular saturated fatty acid if it triggered a >25% block of agonist's cellular response at 200 µM concentration of saturated fatty acid.”

Compound | inhibition at 200 µM [1] [%] | percentage block of cellular response over baseline, 54 [2] [%] | inhibition at 200 µM [3] [%] | inhibition at 200 µM [4] [%] | percentage block of cellular response over baseline, 14 [5] [%] | percentage block of cellular response over baseline, 75 [6] [%]
CCCCCCC(=O)O [Compound 101, Heptanoic acid (Enanthic acid)] | 25 | 65 | – | – | – | –
CCCCCCCC(=O)O [Compound 102, Octanoic acid (Caprylic acid)] | – | 90 | > 30 | 40 | >25 | 30
CCCCCCCCC(=O)O [Compound 103, Nonanoic acid (Pelargonic acid)] | > 50 | – | > 50 | > 70 | >35 | –
CCCCCCCCCC(=O)O [Compound 104, Decanoic acid (Capric acid)] | > 65 | >75 | > 75 | > 95 | >55 | >50
CCCCCCCCCCC(=O)O [Compound 105, Undecanoic acid] | – | – | > 75 | > 95 | >85 | –
CCCCCCCCCCCC(=O)O [Compound 106, Dodecanoic acid (Lauric acid)] | 40 | – | > 35 | > 85 | 65 | –
CCCCCCCCCCCCC(=O)O [Compound 107, Tridecanoic acid] | – | – | – | – | >25 | –
CCCCC(C)C(=O)O (stereo not drawn) [Compound 114, 2-Methylhexanoic acid] | – | 50 | – | – | – | –
CCCCC(CC)C(=O)O (stereo not drawn) [Compound 115, 2-Ethylhexanoic acid] | – | 50 | – | – | – | –
CCCCCC(C)C(=O)O (stereo not drawn) [Compound 117, 2-Methylheptanoic acid] | 30 | 80 | – | 30 | – | –
CCCCC(C)CCC(=O)O (stereo not drawn) [Compound 119, 4-Methyloctanoic acid] | 45 | – | 40 | > 60 | – | –
CCCCC(CC)CCC(=O)O (stereo not drawn) [Compound 120, 4-Ethyloctanoic acid] | > 25 | 95 | > 30 | > 50 | – | 25
CCCCCC(C)CCC(=O)O (stereo not drawn) [Compound 121, 4-Methylnonanoic acid] | > 55 | – | > 50 | > 85 | >40 | –

— patent US20250275559A1, “SATURATED FATTY ACIDS AND THEIR USE TO MODIFY TASTE” (Firmenich Incorporated, priority 2022, published 2025)
